From US8541427B2, “Phenyl-substituted 2-imino-3-methyl pyrrolo pyrimidinone compounds as BACE-1 inhibitors, compositions, and their use” (Merck, Sharp & Dohme, Corp., priority 2008, dated 2013)
Read-outs that look alike come from different tables or passages of the source.

How the values were obtained:
CYP2C9 = CYP2C9 (Homo sapiens (Human), UniProt P11712); assay: CYP Inhibition Assay, CYP2C9; assay type: in vitro ADME; settings: human liver microsomes;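 further: probe substrate held close to its Km, with metabolite formation quantified by LC-MS/MS against a calibration curve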
CYP3A4 = CYP3A4 (Homo sapiens (Human), UniProt P08684); assay: CYP Inhibition Assay, CYP3A4; assay type: in vitro ADME; settings: human liver microsomes;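 further: CYP probe substrate held near its Km, inhibition judged from metabolite formation quantified by LC-MS/MS against a standard curve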
hERG = hERG (Homo sapiens (Human), UniProt Q12809); assay: hERG screening, IonWorks Quattro (hERG L929 cells); assay type: cell-based; settings: L929 cells expressing hERG; for inhibition at 5 min, 1 uM: read-out: HERG Ionworks % Inhib 1 uM; for inhibition at 5 min, 10 uM: read-out: HERG Ionworks % Inhib 10 uM
CYP2D6 = CYP2D6 (Homo sapiens (Human), UniProt P10635); assay: CYP Inhibition Assay, CYP2D6; assay type: in vitro ADME; settings: human liver microsomes
human liver Cathepsin D = human liver Cathepsin D (Homo sapiens (Human), UniProt P07339); assay: Human Cathepsin D FRET Assay; assay type: biochemical; settings: selectivity with respect to Cathepsin D vs BACE1
[1] = target: BACE1 (Aβ40 in HEK293-APPswe/lon cells) (Homo sapiens (Human), UniProt P56817); assay: BACE Inhibitor Whole Cell IC50 Determination Using HEK293-APPswe/lon Cells (Aβ40); assay type: cell-based; settings: 4 hours
[2] = target: soluble human BACE1 catalytic domain (Homo sapiens (Human), UniProt P56817); assay: BACE1 HTRF FRET Assay; assay type: biochemical; settings: Ki calculated from IC50 with Cheng-Prusoff equation;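 further: cleavage of a quenched APP Swedish mutant peptide (QSY7 quencher, Europium donor) measured as rise in 620 nm fluorescence after 1.5 h at 30 °C, inhibition suppresses signal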
[3] = 30 min pre-incubation with NADPH, read-out: CYP 2C9 IC50 pre
[4] = co-incubation, read-out: CYP 2C9 IC50 co
[5] = 30 min pre-incubation with NADPH, read-out: CYP 3A4 IC50 pre
[6] = co-incubation, read-out: CYP 3A4 IC50 co
[7] = 30 min pre-incubation with NADPH, read-out: CYP 2D6 IC50 pre
[8] = co-incubation, read-out: CYP 2D6 IC50 co

human liver Cathepsin D, sequence (P07339 65-412): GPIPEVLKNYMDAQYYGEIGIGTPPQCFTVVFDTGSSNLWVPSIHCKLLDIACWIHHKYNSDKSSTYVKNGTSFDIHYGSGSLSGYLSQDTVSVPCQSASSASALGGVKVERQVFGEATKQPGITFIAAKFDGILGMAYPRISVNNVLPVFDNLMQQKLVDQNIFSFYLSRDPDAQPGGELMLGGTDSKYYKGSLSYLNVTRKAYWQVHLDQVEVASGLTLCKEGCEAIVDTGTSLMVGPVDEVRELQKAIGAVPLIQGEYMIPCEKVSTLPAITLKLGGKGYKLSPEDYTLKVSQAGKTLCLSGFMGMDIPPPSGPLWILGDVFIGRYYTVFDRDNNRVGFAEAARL
human liver Cathepsin D, sequence (P07339 169-412): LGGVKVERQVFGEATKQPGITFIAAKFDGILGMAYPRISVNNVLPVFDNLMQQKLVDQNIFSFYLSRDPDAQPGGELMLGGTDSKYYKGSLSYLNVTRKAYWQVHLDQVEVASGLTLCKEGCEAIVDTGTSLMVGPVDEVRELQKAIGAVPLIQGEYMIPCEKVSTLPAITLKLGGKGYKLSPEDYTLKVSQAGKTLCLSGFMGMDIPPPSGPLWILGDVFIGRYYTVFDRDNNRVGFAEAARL
BACE1 (Aβ40 in HEK293-APPswe/lon cells), sequence (P56817 46-501): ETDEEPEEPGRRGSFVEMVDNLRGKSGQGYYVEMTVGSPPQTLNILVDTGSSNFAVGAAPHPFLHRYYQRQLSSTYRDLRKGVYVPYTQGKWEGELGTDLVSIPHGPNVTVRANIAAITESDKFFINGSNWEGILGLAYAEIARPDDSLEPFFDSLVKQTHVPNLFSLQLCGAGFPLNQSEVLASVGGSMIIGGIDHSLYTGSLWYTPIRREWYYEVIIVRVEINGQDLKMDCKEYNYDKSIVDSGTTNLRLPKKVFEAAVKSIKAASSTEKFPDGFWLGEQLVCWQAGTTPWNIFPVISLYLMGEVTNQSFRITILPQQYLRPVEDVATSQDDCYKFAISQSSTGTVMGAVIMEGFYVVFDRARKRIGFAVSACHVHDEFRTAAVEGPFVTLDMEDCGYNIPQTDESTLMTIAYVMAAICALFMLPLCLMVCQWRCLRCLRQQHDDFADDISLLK
soluble human BACE1 catalytic domain, sequence (P56817 75-416): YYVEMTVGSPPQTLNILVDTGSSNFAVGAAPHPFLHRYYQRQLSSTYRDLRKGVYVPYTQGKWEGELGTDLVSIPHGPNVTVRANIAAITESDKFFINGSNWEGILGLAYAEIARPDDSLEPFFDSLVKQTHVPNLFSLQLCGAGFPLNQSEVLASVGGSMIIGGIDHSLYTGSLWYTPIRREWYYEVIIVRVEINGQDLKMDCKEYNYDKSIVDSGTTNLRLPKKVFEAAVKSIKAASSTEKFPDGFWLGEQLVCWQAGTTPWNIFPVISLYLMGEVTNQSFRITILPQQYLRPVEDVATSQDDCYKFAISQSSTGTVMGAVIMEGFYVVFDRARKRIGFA
CYP2D6, sequence (P10635 whole entry): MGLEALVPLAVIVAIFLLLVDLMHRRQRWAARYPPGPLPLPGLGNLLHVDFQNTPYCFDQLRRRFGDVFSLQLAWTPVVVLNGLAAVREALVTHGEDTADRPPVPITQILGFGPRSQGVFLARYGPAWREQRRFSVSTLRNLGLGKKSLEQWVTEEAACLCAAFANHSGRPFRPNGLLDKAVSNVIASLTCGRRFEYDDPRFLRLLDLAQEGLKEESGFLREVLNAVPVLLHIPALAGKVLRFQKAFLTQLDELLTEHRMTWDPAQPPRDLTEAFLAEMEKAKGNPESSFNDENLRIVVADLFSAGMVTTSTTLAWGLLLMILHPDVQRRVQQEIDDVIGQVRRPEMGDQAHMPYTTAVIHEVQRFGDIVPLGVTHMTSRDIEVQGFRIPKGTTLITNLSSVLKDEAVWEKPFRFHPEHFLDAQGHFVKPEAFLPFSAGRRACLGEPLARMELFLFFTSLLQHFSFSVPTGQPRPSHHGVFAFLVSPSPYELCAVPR
hERG, sequence (Q12809 whole entry): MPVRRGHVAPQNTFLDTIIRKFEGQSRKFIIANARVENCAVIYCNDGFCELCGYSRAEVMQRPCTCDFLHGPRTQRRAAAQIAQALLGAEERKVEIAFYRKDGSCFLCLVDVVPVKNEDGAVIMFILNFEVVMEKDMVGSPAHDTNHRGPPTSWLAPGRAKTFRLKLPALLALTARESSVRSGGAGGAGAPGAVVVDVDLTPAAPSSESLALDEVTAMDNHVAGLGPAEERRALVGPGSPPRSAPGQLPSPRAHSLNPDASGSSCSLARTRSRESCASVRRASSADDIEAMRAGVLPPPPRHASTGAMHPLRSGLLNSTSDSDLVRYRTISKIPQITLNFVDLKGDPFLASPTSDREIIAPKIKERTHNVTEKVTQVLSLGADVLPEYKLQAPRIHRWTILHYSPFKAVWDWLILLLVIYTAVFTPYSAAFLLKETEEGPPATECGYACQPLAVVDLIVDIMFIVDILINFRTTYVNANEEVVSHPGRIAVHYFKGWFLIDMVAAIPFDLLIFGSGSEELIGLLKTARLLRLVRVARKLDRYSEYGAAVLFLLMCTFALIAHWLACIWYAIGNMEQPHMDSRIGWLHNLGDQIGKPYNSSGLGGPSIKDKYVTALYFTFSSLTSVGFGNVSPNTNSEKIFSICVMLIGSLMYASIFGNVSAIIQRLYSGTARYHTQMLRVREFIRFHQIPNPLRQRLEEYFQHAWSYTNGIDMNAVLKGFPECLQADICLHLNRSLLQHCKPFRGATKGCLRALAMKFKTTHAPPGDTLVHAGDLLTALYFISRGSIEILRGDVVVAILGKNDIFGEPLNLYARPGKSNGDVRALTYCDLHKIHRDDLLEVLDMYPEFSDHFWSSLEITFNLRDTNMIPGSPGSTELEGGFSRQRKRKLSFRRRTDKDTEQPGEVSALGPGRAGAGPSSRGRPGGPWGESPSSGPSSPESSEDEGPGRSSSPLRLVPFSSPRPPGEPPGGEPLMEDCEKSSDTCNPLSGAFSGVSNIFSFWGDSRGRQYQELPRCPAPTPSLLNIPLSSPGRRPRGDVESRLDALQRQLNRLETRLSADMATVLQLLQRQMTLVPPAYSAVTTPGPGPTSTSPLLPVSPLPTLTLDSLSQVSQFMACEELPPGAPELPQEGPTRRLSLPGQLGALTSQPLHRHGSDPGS
CYP3A4, sequence (P08684 whole entry): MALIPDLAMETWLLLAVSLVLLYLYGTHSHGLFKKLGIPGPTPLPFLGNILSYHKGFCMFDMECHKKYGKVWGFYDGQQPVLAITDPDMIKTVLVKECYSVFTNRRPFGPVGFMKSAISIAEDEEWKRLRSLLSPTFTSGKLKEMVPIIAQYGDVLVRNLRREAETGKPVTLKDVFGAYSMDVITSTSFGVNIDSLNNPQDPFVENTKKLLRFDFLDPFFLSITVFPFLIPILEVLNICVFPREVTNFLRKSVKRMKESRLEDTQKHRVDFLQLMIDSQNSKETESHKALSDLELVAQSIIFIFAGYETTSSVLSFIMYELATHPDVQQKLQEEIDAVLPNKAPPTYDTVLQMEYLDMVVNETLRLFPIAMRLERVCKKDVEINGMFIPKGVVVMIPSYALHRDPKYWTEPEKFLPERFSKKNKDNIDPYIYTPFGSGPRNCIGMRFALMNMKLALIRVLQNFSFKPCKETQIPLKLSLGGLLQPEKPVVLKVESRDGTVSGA
CYP2C9, sequence (P11712 whole entry): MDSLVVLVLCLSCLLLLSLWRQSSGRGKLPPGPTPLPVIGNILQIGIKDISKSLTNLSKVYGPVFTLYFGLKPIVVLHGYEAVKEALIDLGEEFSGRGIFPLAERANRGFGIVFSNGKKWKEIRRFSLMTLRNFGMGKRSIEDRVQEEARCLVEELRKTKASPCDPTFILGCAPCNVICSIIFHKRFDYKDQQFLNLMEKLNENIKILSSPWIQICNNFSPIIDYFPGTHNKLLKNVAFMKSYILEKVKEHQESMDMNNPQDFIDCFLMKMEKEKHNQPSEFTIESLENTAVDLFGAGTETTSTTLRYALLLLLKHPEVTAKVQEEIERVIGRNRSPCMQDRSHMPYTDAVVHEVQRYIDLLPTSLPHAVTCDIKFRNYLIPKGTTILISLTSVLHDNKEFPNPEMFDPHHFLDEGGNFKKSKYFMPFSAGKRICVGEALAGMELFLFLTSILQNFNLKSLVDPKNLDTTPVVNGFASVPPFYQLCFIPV

SMILES | IC50 (CYP2C9; [3]) [µM] | IC50 (CYP2C9; [4]) [µM] | IC50 (CYP3A4; [5]) [µM] | IC50 (CYP3A4; [6]) [µM] | inhibition at 5 min, 1 uM (hERG) [%] | inhibition at 5 min, 10 uM (hERG) [%] | IC50 (CYP2D6; [7]) [µM] | IC50 (CYP2D6; [8]) [µM] | CathD Selectivity (human liver Cathepsin D) | IC50 [1] [µM] | Ki [2] [µM]
COc1nc(N2C[C@H]3C(=O)N(C)C(=N)N[C@@]3(c3cc(Cl)ccc3F)C2)nc(C)c1F [Example 3] | 12.7 | 8.5 | > 20 | > 20 | 22 | 89 | > 20 | > 20 | – | – | –
COc1nc(N2C[C@H]3C(=O)N(C)C(=N)N[C@@]3(c3ccccc3F)C2)nc(C)c1Cl [Example 18] | – | – | – | – | – | – | – | – | 228 | 0.032 | 0.0093
CCc1nc(N2C[C@H]3C(=O)N(C)C(=N)N[C@@]3(c3cc(F)ccc3F)C2)nc(OC)c1F [Example 31] | > 20 | > 20 | > 20 | > 20 | 21 | 88 | > 20 | > 20 | 596 | 0.031 | 0.0069
Cc1nc(N2C[C@H]3C(=O)N(C)C(N)=N[C@@]3(c3ccccc3)C2)nc(C2CC2)c1Cl (racemic) [7 racemic] | – | – | – | – | – | – | – | – | – | 0.664 | 0.094
CCOc1nc(N2C[C@H]3C(=O)N(C)C(N)=N[C@@]3(c3ccccc3)C2)nc(C)c1F (racemic) [4 racemic] | > 30 | > 30 | > 30 | > 30 | – | – | > 30 | ~30 | – | – | –
COc1nc(N2C[C@H]3C(=O)N(C)C(=N)N[C@@]3(c3cc(F)ccc3F)C2)nc(OC)c1F [Example 9] | ~30 | ~30 | 18.6 | > 30 | 12 | 71 | > 30 | > 30 | 386 | 0.066 | 0.0056
COc1nc(N2C[C@H]3C(=O)N(C)C(=N)N[C@@]3(c3cc(F)ccc3Cl)C2)nc(C)c1F [Example 2] | > 20 | > 20 | > 20 | > 20 | 8 | 50 | > 20 | > 20 | 162 | – | –
CCc1nc(N2C[C@H]3C(=O)N(C)C(N)=N[C@@]3(c3ccccc3)C2)nc(C)c1F (racemic) [5 racemic] | > 30 | > 30 | > 30 | > 30 | – | – | > 30 | ~30 | – | 0.217 | 0.061
COc1nc(N2C[C@H]3C(=O)N(C)C(=N)N[C@@]3(c3ccc(F)cc3Cl)C2)nc(C)c1F [Example 20] | 8.9 | 7.5 | 8.3 | > 20 | 29 | 93 | > 20 | > 20 | 106 | 0.0095 | 0.0045
COc1nc(N2C[C@H]3C(=O)N(C)C(=N)N[C@@]3(c3c(F)cc(F)cc3F)C2)nc(C)c1F [Example 13] | > 20 | > 20 | > 20 | > 20 | – | – | > 20 | > 20 | 773 | 0.021 | 0.015
Cc1nc(N2C[C@H]3C(=O)N(C)C(N)=N[C@@]3(c3ccccc3)C2)nc(C)c1F (racemic) [23 racemic] | > 30 | > 30 | > 30 | > 30 | – | – | > 30 | > 30 | – | 0.292 | 0.154
Cc1nc(N2C[C@H]3C(=O)N(C)C(N)=N[C@@]3(c3ccccc3)C2)nc(C2CC2)c1F (racemic) [25 racemic] | > 20 | > 20 | > 20 | > 20 | – | – | > 20 | > 20 | – | 0.349 | 0.044
COc1nc(N2C[C@H]3C(=O)N(C)C(=N)N[C@@]3(c3ccc(F)cc3F)C2)nc(C(C)(F)F)c1F [Example 42] | – | – | – | – | – | – | – | – | – | – | 0.011
Cc1nc(N2C[C@H]3C(=O)N(C)C(=N)N[C@@]3(c3cc(F)ccc3F)C2)nc(C2CC2)c1F [Example 37] | > 20 | > 20 | > 20 | > 20 | 12 | 73 | > 20 | > 20 | – | 0.235 | 0.026
COc1nc(N2C[C@H]3C(=O)N(C)C(=N)N[C@@]3(c3cccc(Cl)c3)C2)nc(C)c1F [Example 33] | – | – | – | – | – | – | – | – | 43 | 0.176 | 0.039
COc1nc(N2C[C@H]3C(=O)N(C)C(N)=N[C@@]3(c3c(F)ccc(F)c3F)C2)nc(C)c1F [Example 40] | > 20 | > 20 | > 20 | > 20 | 15 | 81 | > 20 | > 20 | – | – | –
CCOc1nc(N2C[C@H]3C(=O)N(C)C(=N)N[C@@]3(c3ccccc3)C2)nc(OC)c1F (racemic) [24 racemic] | > 30 | > 30 | > 30 | > 30 | – | – | ~30 | 22.6 | 129 | – | 0.137
CCc1nc(N2C[C@H]3C(=O)N(C)C(=N)N[C@@]3(c3ccccc3)C2)nc(OC)c1F (racemic) [6 racemic] | > 30 | > 30 | > 30 | > 30 | – | – | ~30 | 24.9 | 318 | 0.144 | 0.016
COc1nc(N2C[C@H]3C(=O)N(C)C(N)=N[C@@]3(c3cc(F)c(F)cc3F)C2)nc(C)c1F [Example 8] | > 20 | > 20 | > 20 | > 20 | 21 | 89 | > 20 | > 20 | – | – | –
Cc1nc(N2C[C@H]3C(=O)N(C)C(=N)N[C@@]3(c3cccc(C#N)c3)C2)nc(C2CC2)c1F [Example 14] | > 20 | > 20 | > 20 | > 20 | 6 | 59 | > 20 | > 20 | – | 0.213 | 0.043
COc1nc(N2C[C@H]3C(=O)N(C)C(=N)N[C@@]3(c3ccc(F)cc3F)C2)nc(C(F)(F)F)c1F [Example 41] | – | – | – | – | 1 | 77 | – | – | 346 | 0.067 | 0.032
CCc1nc(N2C[C@H]3C(=O)N(C)C(N)=N[C@@]3(c3ccccc3)C2)nc(C2CC2)c1Cl (racemic) [26 racemic] | > 20 | > 20 | > 20 | > 20 | – | – | > 20 | > 20 | – | – | 0.18
